The text below walks through data of US10683311B2 (priority 2015, dated 2020).

Usually logP stands for the decadic logarithm of the partition coefficient of the neutral form, usually between octanol and water. One may read the chromatographic logP as lipophilicity estimated from chromatographic retention. What is called inhibition is the change of the read-out against control, counted positive when it falls.

Test system in one series: not listed separately
As to the kind of experiment: log P by HPLC on reversed-phase column (C18), EEC Directive 79/831 Annex V.A8. It is filed as physicochemical. The conditions noted are these: Method A: 40° C., 0.1% aqueous formic acid and acetonitrile. A digest of the protocol: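 Retention time on C18 reversed-phase HPLC at 40 °C, gradient 10% to 95% acetonitrile with either 0.1% aqueous formic acid (Method A) or 0.001 molar ammonium acetate (Method B). Calibrated with unbranched alkan-2-ones (C3–C16) of known log P by linear interpolation between successive alkanones.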
With `C[Si](C)(C)c1cc(F)ccc1Oc1cnc2c(Cl)cccc2c1` [I.019], the log partition coefficient (logP) came out at 5.62.
On the same count and under the same terms, in the case of `Cc1nc2c(F)c(F)ccc2cc1Oc1ccccc1[Si](C)(C)C` [I.024] it was 6.01.
Still for that read-out and setting: the value for `C[Si](C)(C)c1c(F)cccc1Oc1cnc2cccnc2c1` [I.116] was 4.15.

Still in this series, the particulars now being: Method B: 40° C., 0.001 molar ammonium acetate solution in water and acetonitrile.
`Cc1nc2c(F)c(F)ccc2cc1Oc1cccc(F)c1[Si](C)(C)C` [I.027] had a logP of 5.54.

Still in this series, the particulars now being: reversed-phase HPLC column (C18), Method A: 40° C., 0.1% aqueous formic acid and acetonitrile.
On to `C[Si](C)(C)c1ccccc1Oc1cnc2ccccc2c1` [I.001, 3-[2-(trimethylsilyl)phenoxy]quinoline], for which the chromatographic logP was 5.17.
In the case of `C[Si]1(c2c(F)cccc2Oc2cnc3ccccc3c2)CCC1` [I.008, 3-[3-fluoro-2-(1-methylsiletan-1-yl)phenoxy]quinoline], the chromatographic logP worked out at 5.39.
The same measure, in the same setting: in the case of `Cc1nc2c(F)c(F)ccc2cc1Oc1ccccc1[Si](C)(C)O` [I.026, {2-[(7,8-difluoro-2-methylquinolin-3-yl)oxy]phenyl}(dimethyl)silanol] it was 3.51.
On the same count and under the same terms, the value for `Cc1nc2c(F)c(F)ccc2cc1Oc1cccc(F)c1[Si](C)(C)F` [I.032, 7,8-difluoro-3-{3-fluoro-2-[fluoro(dimethyl)silyl]phenoxy}-2-methylquinoline] was 4.75.
In turn, `Cc1nc2ccccc2cc1Oc1ccccc1[Si](C)(C)C` [I.047, 2-methyl-3-[2-(trimethylsilyl)phenoxy]quinoline] showed a chromatographic logP of 4.85.
Turning to `C[SiH](c1ccccc1)c1c(F)cccc1Oc1cc2ccccc2nc1Cl` (centres unmarked) [I.062, 2-chloro-3-{3-fluoro-2-[methyl(phenyl)silyl]phenoxy}quinoline], the chromatographic logP is 5.78.

The series is the same for the next values; noted with them: reversed-phase HPLC column (C18), Method B: 40° C., 0.001 molar ammonium acetate solution in water and acetonitrile.
Take `C[Si]1(C)OCc2cccc(Nc3cnc4ccccc4c3)c21` [I.010, N-(1,1-dimethyl-1,3-dihydro-2,1-benzoxasilol-7-yl)quinolin-3-amine]: the chromatographic logP worked out at 3.15.

The test system of another series is Pyricularia oryzae. In words: microbe, parasite or virus in culture. The conditions noted are these: 1 ppm; inhibition of fungal growth, liquid culture, 5 days incubation. It is filed as cell-based.
In the case of `Cc1cc(Oc2cccc(F)c2[Si](C)(C)C)c2ccc(F)c(F)c2n1` [CMP3, 7,8-difluoro-4-[3-fluoro-2-(trimethylsilyl)phenoxy]-2-methylquinoline, reference compound], the Efficacy is 0%.
Still for that read-out and setting: in the case of `C[Si](C)(C)c1c(F)cccc1Oc1ccnc2cccnc12` [CMP4, 4-[3-fluoro-2-(trimethylsilyl)-phenoxy]-1,5-naphthyridine, reference compound] it was 0%; in that of `C[Si](C)(C)c1cc(F)ccc1Oc1cnc2c(Cl)cccc2c1` [I.019], 45%; in that of `Cc1nc2c(F)c(F)ccc2cc1Oc1cccc(F)c1[Si](C)(C)C` [I.027], 85%.
Regarding `C[Si](C)(C)c1c(F)cccc1Oc1cnc2cccnc2c1` [I.116], the Efficacy was 90%.

The series is the same for the next values; noted with them: 4 ppm of active ingredient; 5 days incubation.
With `Cc1cc(Oc2cccc(F)c2[Si](C)(C)C)c2ccc(F)c(F)c2n1` [CMP3, 7,8-difluoro-4-[3-fluoro-2-(trimethylsilyl)phenoxy]-2-methylquinoline, reference compound], the “efficacy (inhibition of fungal growth)” value is listed as “much lower efficacy”.
The same measure, in the same setting: the value for `C[Si](C)(C)c1c(F)cccc1Oc1ccnc2cccnc12` [CMP4, 4-[3-fluoro-2-(trimethylsilyl)-phenoxy]-1,5-naphthyridine, reference compound] was “much lower efficacy”.

Staying with this series, now noted: 4 ppm; inhibition of fungal growth, liquid culture, 5 days incubation.
On to `Cc1cc(Oc2cccc(F)c2[Si](C)(C)C)c2ccc(F)c(F)c2n1` [CMP3, 7,8-difluoro-4-[3-fluoro-2-(trimethylsilyl)phenoxy]-2-methylquinoline, reference compound], for which the Efficacy was found to be 25%.
The same measure, in the same setting: the value for `C[Si](C)(C)c1c(F)cccc1Oc1ccnc2cccnc12` [CMP4, 4-[3-fluoro-2-(trimethylsilyl)-phenoxy]-1,5-naphthyridine, reference compound] was 11%; that for `C[Si](C)(C)c1cc(F)ccc1Oc1cnc2c(Cl)cccc2c1` [I.019] was 98%.
In the case of `Cc1nc2c(F)c(F)ccc2cc1Oc1cccc(F)c1[Si](C)(C)C` [I.027], the Efficacy is reported as 94%.
`C[Si](C)(C)c1c(F)cccc1Oc1cnc2cccnc2c1` [I.116]: the Efficacy amounted to 100%.

Still in this series, the particulars now being: 20 ppm; inhibition of fungal growth, liquid culture, 5 days incubation.
Compound `Cc1cc(Oc2cccc(F)c2[Si](C)(C)C)c2ccc(F)c(F)c2n1` [CMP3, 7,8-difluoro-4-[3-fluoro-2-(trimethylsilyl)phenoxy]-2-methylquinoline, reference compound] yielded an Efficacy of 96%.
On the same count and under the same terms, in the case of `C[Si](C)(C)c1c(F)cccc1Oc1ccnc2cccnc12` [CMP4, 4-[3-fluoro-2-(trimethylsilyl)-phenoxy]-1,5-naphthyridine, reference compound] it was 44%; in that of `C[Si](C)(C)c1cc(F)ccc1Oc1cnc2c(Cl)cccc2c1` [I.019], 97%.
The same measure, in the same setting: in the case of `Cc1nc2c(F)c(F)ccc2cc1Oc1cccc(F)c1[Si](C)(C)C` [I.027] it was 100%.
In turn, `C[Si](C)(C)c1c(F)cccc1Oc1cnc2cccnc2c1` [I.116] showed an Efficacy of 100%.

Staying with this series, now noted: Pyricularia oryzae, 120 h, read-out: efficacy (inhibition of fungal growth).
For `C[Si](C)(C)c1ccccc1Oc1cnc2ccccc2c1` [I.001, 3-[2-(trimethylsilyl)phenoxy]quinoline], the inhibition at 20 ppm lay within 90 to 100%.
Still for that read-out and setting: in the case of `C[Si]1(c2c(F)cccc2Oc2cnc3ccccc3c2)CCC1` [I.008, 3-[3-fluoro-2-(1-methylsiletan-1-yl)phenoxy]quinoline] it was 90 to 100%.
In the case of `C[Si]1(C)OCc2cccc(Nc3cnc4ccccc4c3)c21` [I.010, N-(1,1-dimethyl-1,3-dihydro-2,1-benzoxasilol-7-yl)quinolin-3-amine], the inhibition at 20 ppm was 80 to 89%.
Consider `Cc1nc2c(F)c(F)ccc2cc1Oc1ccccc1[Si](C)(C)O` [I.026, {2-[(7,8-difluoro-2-methylquinolin-3-yl)oxy]phenyl}(dimethyl)silanol], for which the inhibition at 20 ppm is 90 to 100%.
Still for that read-out and setting: in the case of `Cc1nc2c(F)c(F)ccc2cc1Oc1cccc(F)c1[Si](C)(C)F` [I.032, 7,8-difluoro-3-{3-fluoro-2-[fluoro(dimethyl)silyl]phenoxy}-2-methylquinoline] it was 90 to 100%; in that of `Cc1nc2ccccc2cc1Oc1ccccc1[Si](C)(C)C` [I.047, 2-methyl-3-[2-(trimethylsilyl)phenoxy]quinoline], 90 to 100%.
Same read-out and setting: in the case of `C[SiH](c1ccccc1)c1c(F)cccc1Oc1cc2ccccc2nc1Cl` (centres unmarked) [I.062, 2-chloro-3-{3-fluoro-2-[methyl(phenyl)silyl]phenoxy}quinoline] it was 90 to 100%.

The series is the same for the next values; noted with them: dose 0.06 ppm; inhibition of fungal growth, liquid culture, 5 days incubation.
As for `Cc1nc2c(F)c(F)ccc2cc1Oc1ccccc1C[Si](C)(C)C` [CMP1, 7,8-difluoro-2-methyl-3-{2-[(trimethylsilyl)methyl]phenoxy}quinoline, reference compound], the Efficacy amounted to 1%.
`Cc1nc2c(F)c(F)ccc2cc1Oc1ccccc1[Si](C)(C)C` [I.024] came in with an Efficacy of 89%.

Staying with this series, now noted: dose 0.25 ppm; inhibition of fungal growth, liquid culture, 5 days incubation.
The compound `Cc1nc2c(F)c(F)ccc2cc1Oc1ccccc1C[Si](C)(C)C` [CMP1, 7,8-difluoro-2-methyl-3-{2-[(trimethylsilyl)methyl]phenoxy}quinoline, reference compound] yielded an Efficacy of 56%.
In the case of `Cc1nc2c(F)c(F)ccc2cc1Oc1ccccc1[Si](C)(C)C` [I.024], the Efficacy came out at 96%.

The same series, now with this note: dose of 0.25 ppm or 0.06 ppm.
Turning to `Cc1nc2c(F)c(F)ccc2cc1Oc1ccccc1C[Si](C)(C)C` [CMP1, 7,8-difluoro-2-methyl-3-{2-[(trimethylsilyl)methyl]phenoxy}quinoline, reference compound], the “efficacy (inhibition of fungal growth)” value is listed as “much lower efficacy”.
`Cc1nc2c(F)c(F)ccc2cc1Oc1ccccc1[Si](C)(C)C` [I.024]: the “efficacy (inhibition of fungal growth)” value is on record as “at least 80%”.

In another series the test system is Botrytis cinerea. As to the kind of experiment: Example B: in vivo preventive test on Botrytis cinerea (grey mould). The conditions noted are these: 500 ppm of active ingredient; gherkin plants; preventive; evaluated 4 to 5 days after inoculation. On the procedure:
Example B: In Vivo Preventive Test on Botrytis cinerea (Grey Mould)
(§1) • Solvent: 5% by volume of dimethyl sulfoxide • 10% by volume of acetone • Emulsifier: 1 μL of Tween® 80 per mg of active ingredient
The tested compounds were made soluble and homogenized in a mixture of dimethyl sulfoxide/acetone//Tween® 80 and then diluted in water to the desired concentration.
The young plants of gherkin were treated by spraying the tested compounds prepared as described above. Control plants were treated only with an aqueous solution of acetone/dimethyl sulfoxide/Tween® 80.
After 24 hours, the plants were contaminated by spraying the leaves with an aqueous suspension of Botrytis cinerea spores. The contaminated gherkin plants were incubated for 4 to 5 days at 17° C. and at 90% relative humidity.
The test was evaluated 4 to 5 days after the inoculation. 0% means an efficacy which corresponds to that of the control plants while an efficacy of 100% means that no disease is observed.
For `Cc1cc(Oc2cccc(F)c2[Si](C)(C)C)c2ccc(F)c(F)c2n1` [CMP3, 7,8-difluoro-4-[3-fluoro-2-(trimethylsilyl)phenoxy]-2-methylquinoline, reference compound], the Efficacy result was “no efficacy”.
Still for that read-out and setting: the value for `C[Si](C)(C)c1c(F)cccc1Oc1ccnc2cccnc12` [CMP4, 4-[3-fluoro-2-(trimethylsilyl)-phenoxy]-1,5-naphthyridine, reference compound] was “no efficacy”.

Still in this series, the particulars now being: dose 500 ppm; preventive spray on gherkin plants, evaluated 4 to 5 days after inoculation.
`Cc1cc(Oc2cccc(F)c2[Si](C)(C)C)c2ccc(F)c(F)c2n1` [CMP3, 7,8-difluoro-4-[3-fluoro-2-(trimethylsilyl)phenoxy]-2-methylquinoline, reference compound] yielded an Efficacy of 0%.
The same measure, in the same setting: the value for `C[Si](C)(C)c1c(F)cccc1Oc1ccnc2cccnc12` [CMP4, 4-[3-fluoro-2-(trimethylsilyl)-phenoxy]-1,5-naphthyridine, reference compound] was 0%.
The same measure, in the same setting: the value for `Cc1nc2c(F)c(F)ccc2cc1Oc1cccc(F)c1[Si](C)(C)C` [I.027] was 92%; that for `C[Si](C)(C)c1c(F)cccc1Oc1cnc2cccnc2c1` [I.116] was 73%.

Another series concerns Septoria tritici. As to the kind of experiment: Example D: in vivo preventive test on Septoria tritici (leaf spot on wheat). The conditions noted are these: 500 ppm of active ingredient, evaluated 24 days after inoculation. How it is done: Example D: In Vivo Preventive Test on Septoria tritici (Leaf Spot on Wheat)
as §1
The active compounds were made soluble and homogenized in a mixture of dimethyl sulfoxide/acetone//Tween® 80 and then diluted in water to the desired concentration.
The young plants of wheat were treated by spraying the active compound prepared as described above. Control plants were treated only with an aqueous solution of acetone/dimethyl sulfoxide/Tween® 80.
After 24 hours, the plants were contaminated by spraying the leaves with an aqueous suspension of Septoria tritici spores. The contaminated wheat plants were incubated for 72 hours at 18° C. and at 100% relative humidity and then for 21 days at 20° C. and at 90% relative humidity.
The test was evaluated 24 days after the inoculation. 0% means an efficacy which corresponds to that of the control plants while an efficacy of 100% means that no disease is observed.
`Cc1nc2c(F)c(F)ccc2cc1Oc1ccccc1C[Si](C)(C)C` [CMP1, 7,8-difluoro-2-methyl-3-{2-[(trimethylsilyl)methyl]phenoxy}quinoline, reference compound]: the Efficacy entry is “no protection”.

The series is the same for the next values; noted with them: Table D, dose 500 ppm.
Consider `Cc1nc2c(F)c(F)ccc2cc1Oc1ccccc1C[Si](C)(C)C` [CMP1, 7,8-difluoro-2-methyl-3-{2-[(trimethylsilyl)methyl]phenoxy}quinoline, reference compound], for which the Efficacy is 0%.
Same read-out and setting: in the case of `Cc1nc2c(F)c(F)ccc2cc1Oc1ccccc1[Si](C)(C)C` [I.024] it was 81%.
